According to article PMC9020739, “Identification of a two-component regulatory system involved in antimicrobial peptide resistance in Streptococcus pneumoniae” (PLoS Pathogens, 2022):
≈ marks a conversion by molar mass, not a printed value.

What was measured:
[1] = target: BceAB transporter from S. pneumoniae (Streptococcus pneumoniae, UniProt A0A0H2ZN40); assay type: biochemical; conditions: for nH (positive cooperativity): ATPase/GTPase activity as a function of nucleotide concentration, fitted with positive cooperativity, proteoliposomes
Method: E. coli BL21(DE3) cells were transformed with pRSF-Duet1-BceAB WT, K48A or E170Q and selected on LB-agar plates containing 50 μg/mL kanamycin. One colony was inoculated into in 2L-baffled flasks containing 500 mL of 2YT medium and 50 μg/mL kanamycin and grown at 37°C, 180 rpm to OD600 of 0.6. Protein expression was induced by adding IPTG to a final concentration of 1 mM. Induction was performed overnight at 25°C and cells were harvested by centrifugation at 7,000 g for 20 min.
Cells were resuspended in buffer A (HEPES-NaOH 100 mM pH 8.0, NaCl 150 mM) and lysed by passaging them three times through a cell disruptor (Microfluidizer, Microfluidics) at 18,000 psi (or 1,24 x 108 Pa). Undisrupted cells and cell debris were removed by centrifugation at 15,000 x g for 30 min at 4°C. Membranes were harvested from the supernatant after ultracentrifugation at 150,000 x g for 1 h at 4°C. Membranes were resuspended in 20 mL of buffer A and centrifuged once again at 150,000 x g for 1 h at 4°C. Membrane pellets were homogenized in buffer HEPES-NaOH 100 mM pH 8.0, NaCl 150 mM and 20% glycerol, and stored at -80°C.
For the purification of BceAB, membranes from 0,5 L cell culture were diluted in buffer B (100 mM d’HEPES-NaOH pH 8, 150 mM NaCl, 10% glycerol) to a protein concentration of 4 mg/mL and solubilized with 0.5% (w/v) LMNG for 2 h at 4°C. After ultracentrifugation at 150,000 x g for 1 h at 4°C, the supernatant containing solubilized proteins was diluted four times using buffer B and loaded on Ni^2+-charged immobilized metal-ion affinity chromatography (IMAC) column (1 mL HisTrap HP, Cytiva). The column was washed with 10 mL of buffer B containing 0.005% (w/v) LMNG and 20 mM of imidazole. The column was further washed with the same buffer until OD280nm reached basal levels. BceAB was eluted by buffer B containing 0.005% (w/v) LMNG and an imidazole gradient from 20 to 500 mM of imidazole. Purified BceAB was dialyzed into buffer B containing 0.005% (w/v) LMNG and stored at -80°C.
The proteoliposomes were prepared as previously described for the transporter BmrA [50]. Proteoliposomes were loaded on sucrose gradient with different layers of 400 μL of 50 mM HEPES-KOH pH 8.0 buffer containing 30, 20, 15 or 10% of sucrose. One mL of proteoliposomes was loaded on the top of the sucrose gradient and ultra-centrifuged at 200,000 x g for 12 h at 4°C. Proteoliposomes were typically collected from the 15% layer and were loaded on SDS-PAGE to analyze and quantify the presence of BceAB by using a standard-curve of purified BceAB and ImageJ.
These activities were performed as previously described.

[2] = tested on: S. pneumoniae D39 WT; assay type: cell-based, Streptococcus pneumoniae; conditions: D39 strain
Method: (§1) The MIC of various antimicrobial peptides for R6, R800 and D39 strains was determined by classical 2-fold broth dilution method. Cells were first grown in Todd-Hewitt medium at 37°C without agitation and in anaerobic conditions until the absorbance reaches approximatively 0.3. Complementation strains were grown with 0.5 μM ComS inducer until the appropriate OD. Cells were then diluted at final OD600nm = 0.002 in 96-well plates containing 300 μL of Todd-Hewitt medium (and 2 μM ComS inducer for the complementation strains) with serial dilutions of antimicrobial peptides. Pneumococcal growth was monitored by a microplate reader (TECAN) at 37°C without agitation. The absorbance was followed at 600 nm every 15 min for 15 h.

[3] = tested on: S. pneumoniae D39 ΔbceAB/tcs01; assay type: cell-based, Streptococcus pneumoniae; conditions: D39 strain; 2-fold broth dilution, Todd-Hewitt medium, 37°C, 15 h; two to four biological replicates, each technical duplicates
Method: as §1

[4] = tested on: S. pneumoniae D39 ΔbceAB; assay type: cell-based, Streptococcus pneumoniae; conditions: D39 strain; 2-fold broth dilution, Todd-Hewitt medium, 37°C, 15 h; two to four biological replicates, each technical duplicates
Method: as §1

[5] = tested on: S. pneumoniae D39 Δtcs01; assay type: cell-based, Streptococcus pneumoniae; conditions: D39 strain; 2-fold broth dilution, Todd-Hewitt medium, 37°C, 15 h; two to four biological replicates, each technical duplicates
Method: as §1

[6] = tested on: S. pneumoniae R6 WT; assay type: cell-based, Streptococcus pneumoniae; conditions: R6 strain
Method: as §1

[7] = tested on: S. pneumoniae R6 ΔbceAB/tcs01; assay type: cell-based, Streptococcus pneumoniae; conditions: R6 strain; 2-fold broth dilution, Todd-Hewitt medium, 37°C, 15 h; two to four biological replicates, each technical duplicates
Method: as §1

[8] = tested on: S. pneumoniae R6 ΔbceAB; assay type: cell-based, Streptococcus pneumoniae; conditions: R6 strain; 2-fold broth dilution, Todd-Hewitt medium, 37°C, 15 h; two to four biological replicates, each technical duplicates
Method: as §1

[9] = tested on: S. pneumoniae R6 Δtcs01; assay type: cell-based, Streptococcus pneumoniae; conditions: R6 strain; 2-fold broth dilution, Todd-Hewitt medium, 37°C, 15 h; two to four biological replicates, each technical duplicates
Method: as §1

[10] = tested on: S. pneumoniae R800 WT; assay type: cell-based, Streptococcus pneumoniae; conditions: R800 strain; 2-fold broth dilution, Todd-Hewitt medium, 37°C, 15 h; at least biological triplicates, each technical duplicates
Method: as §1

[11] = tested on: S. pneumoniae R800 bceAB-gfp; assay type: cell-based, Streptococcus pneumoniae; conditions: R800 strain; 2-fold broth dilution, Todd-Hewitt medium, 37°C, 15 h; at least biological triplicates, each technical duplicates
Method: as §1

[12] = tested on: S. pneumoniae R800 ΔbceAB-Δhk01-PcomX-hk01; assay type: cell-based, Streptococcus pneumoniae; conditions: R800 complementation strain, 2 μM ComS inducer; 2-fold broth dilution, Todd-Hewitt medium, 37°C, 15 h; at least biological triplicates, each technical duplicates
Method: as §1

[13] = tested on: S. pneumoniae R800 ΔbceAB; assay type: cell-based, Streptococcus pneumoniae; conditions: R800 strain; 2-fold broth dilution, Todd-Hewitt medium, 37°C, 15 h; at least biological triplicates, each technical duplicates
Method: as §1

[14] = tested on: S. pneumoniae R800 Δhk01-PcomX-hk01; assay type: cell-based, Streptococcus pneumoniae; conditions: R800 complementation strain, 2 μM ComS inducer; 2-fold broth dilution, Todd-Hewitt medium, 37°C, 15 h; at least biological triplicates, each technical duplicates
Method: as §1

[15] = tested on: S. pneumoniae R800 Δhk01; assay type: cell-based, Streptococcus pneumoniae; conditions: R800 strain; 2-fold broth dilution, Todd-Hewitt medium, 37°C, 15 h; at least biological triplicates, each technical duplicates
Method: as §1

[16] = tested on: bceAB and tcs01 genes in S. pneumoniae D39 WT; assay: Quantification of gene expression by qPCR; assay type: cell-based, Streptococcus pneumoniae; conditions: D39 wild-type; vancomycin 375 ng/ml for 15 min; n = 8
Method: S. pneumoniae D39 WT and Δtcs01 strains were routinely grown to OD600nm = 0.3 in THY. Then 1 μg/mL of bacitracin was added to the growth media for up to 30 min. Samples were taken at time points shown in the results section. Next, the cultures were mixed with RNA protect (Qiagen) at 1:1 ratio and incubated at room temperature for 5 min and centrifuged for 10 min at 3, 200 g at 4°C. The supernatant was decanted and the pellet was stored at -80°C. The bacteria were resuspended in 100 μL of sterile Tris-EDTA (TE), containing 15 mg/mL lysozyme (Sigma) then 20 μL of Proteinase K (20 mg/mL) (Roche) were added. The sample was vortexed 5 times for 10 sec at two-minutes intervals. Then 350 μL of lysis buffer from the Nucleospin RNA kit (Macherey-Nagel) were added to the sample with 3.5 μL of β-mercaptoethanol and 25 mg of glass beads (Sigma). The cells were lysed by continual vortexing for 5 min. The mRNA was extracted according to the manufacturer’s instructions. After elution, RNA samples were incubated with 5 μL of DNAse for 20 min at room temperature, then inactivated by heating for 70°C for 5 min. RNA concentration was measured using Nanovue (GE Healthcare). For cDNA synthesis 1 μg of RNA was generally used with the SuperScript III kit (Invitrogen) containing a reverse transcriptase, a set of primers, dNTPs, MgCl2 random hexamers and […] after the cDNA generation according to manufacturer’s instructions. Samples were then stored at -20°C. qPCR measurements were done with 2.5 μL of cDNA mixed with 1 μL (3 μM final) of forward and reverse primers, 5 μL iQ SYBR Green Supermix (BioRad) and 0.5 μL water using the CFX Connect Optical Module (BioRad) program as follows: 95°C for 3 min, then a repeat 40 times of 95°C for 10 sec, 55°C for 30 sec, and a fluorescence reading.

SMILES	nH (positive cooperativity) [1]	Minimum Inhibitory Concentration, WT ([2]; 2-fold broth dilution, Todd-Hewitt medium, 37°C, 15 h, two to four biological replicates, each technical duplicates) [µg/mL]	Fold sensitivity diplayed by the KO strains ([2]; KO strains versus WT MIC)	Minimum Inhibitory Concentration, ΔbceAB/tcs01 [3] [µg/mL]	Minimum Inhibitory Concentration, ΔbceAB [4] [µg/mL]	Minimum Inhibitory Concentration, Δtcs01 [5] [µg/mL]	Minimum Inhibitory Concentration, WT ([6]; 2-fold broth dilution, Todd-Hewitt medium, 96-well plates, start OD600 0.002, 37°C, A600 followed 15 h, two to four biological replicates, each technical duplicates) [µg/mL]	Fold sensitivity displayed by the KO strains ([6]; KO strains versus WT MIC)	Minimum Inhibitory Concentration, ΔbceAB/tcs01 [7] [µg/mL]	Minimum Inhibitory Concentration, ΔbceAB [8] [µg/mL]	Minimum Inhibitory Concentration, Δtcs01 [9] [µg/mL]	MIC, WT [10] [µg/mL]	MIC, bceAB-gfp [11] [µg/mL]	MIC, ΔbceAB-Δhk01-PcomX-hk01 [12] [µg/mL]	MIC, ΔbceAB [13] [µg/mL]	MIC, Δhk01-PcomX-hk01 [14] [µg/mL]	MIC, Δhk01 [15] [µg/mL]	Effect on ATPase activity of BceAB ([1]; BceAB proteoliposomes, Fig 7B, triplicates, representative of at least two experiments)	Transcription of the bceAB genes [16]
Nc1ncnc2c1ncn2[C@@H]1O[C@H](COP(=O)(O)OP(=O)(O)OP(=O)(O)O)[C@@H](O)[C@H]1O [ATP]	2.4																		
Nc1nc2c(ncn2[C@@H]2O[C@H](COP(=O)(O)OP(=O)(O)OP(=O)(O)O)[C@@H](O)[C@H]2O)c(=O)[nH]1 [GTP]	1.9																		
CN[C@H](CC(C)C)C(=O)N[C@H]1C(=O)N[C@@H](CC(N)=O)C(=O)N[C@H]2C(=O)N[C@H]3C(=O)N[C@H](C(=O)N[C@H](C(=O)O)c4cc(O)cc(O)c4-c4cc3ccc4O)[C@H](O)c3ccc(c(Cl)c3)Oc3cc2cc(c3O[C@@H]2O[C@H](CO)[C@@H](O)[C@H](O)[C@H]2O[C@H]2C[C@](C)(N)[C@H](O)[C@H](C)O2)Oc2ccc(cc2Cl)[C@H]1O [vancomycin]		0.25	1	0.25	0.25	0.25	0.5	1	0.5	0.5	0.5	0.25 (≈ 0.173 µM)	0.25 (≈ 0.173 µM)	0.25 (≈ 0.173 µM)	0.25 (≈ 0.173 µM)	0.25 (≈ 0.173 µM)	0.25 (≈ 0.173 µM)	did not significantly affect	no upregulation
